{"source": "patent US20170296500A1", "about": "“Uses of Chlorogenic Acid in the Preparation of Medicaments for Treatment of Psoriasis” (SICHUAN JIUZHANG BIOLOGICAL SCIENCE AND TECHNOLOGY CO., LTD, priority 2014, published 2017)", "key": {"[1]": {"test_system": "psoriasiform pathological change in aural region of guinea pigs", "test": "Pharmacodynamic test, psoriasis vulgaris model induced by 5% propranolol emulsion on guinea pig ears; Baker pathologic scores", "assay_type": "in vivo", "details": "14 days; for Pathology of lesional tissue after administration (light microscope): guinea pig ear, HE stain; for Baker scores compared with model group: P<0.01", "excerpt": "60 guinea pigs adapted to diet one week before initiation of experimentation, and both ears of guinea pigs were unhaired, and randomly divided into blank group and experimental group, with 12 guinea pigs for blank group and 48 guinea pigs for experimental group. In experimental group, 5% propranolol dinitrate emulsion was evenly applied to bilateral ear back of guinea pigs, while in blank group, blank medium was applied for 14 days, with a thickness of about 1.0 mm for each time and 4 times per day, to induce pathologic change of psoriasis vulgaris-appearing. […] Based on body weight and conditions of establishing model, the remaining 44 guinea pigs were divided into 4 groups using random digits table, i.e. model group, positive group, low-dose group of chlorogenic acid, high-dose group of chlorogenic acid, 11 guinea pigs for each group.\nAfter administrating for 14 days, samples were taken, and 12% chloral hydrate was peritoneally injected at a dose of 0.35 mL/100 g. After anesthesia, blood sample was collected from abdominal aorta, and animals were sacrificed. Both ear tissues of guinea pigs were scissored and fixed in 10% formaldehyde solution. Ear tissues of guinea pigs were taken out, embedded in paraffin, sliced, normally stained with HE, and sealed with neutral gum. Pathological change of ears was observed under optical microscope, investigated and taken a picture in 10×20 vision. Referring to Baker method, pathologic scores of tissues were assessed: the presence of Munro microabscess in corneum layer scores 2.0 point; hyperkeratosis scores 0.5 point; parakeratosis scores 1.0 point; stratum granulosum thinning and disappearing scores 1.0 point; acanthosis scores 1.0 point; skin process extension and tortuous basal lamina are marked 0.5, 1.0, 1.5 according to light, middle, and heavy degrees, respectively; mononuclear cells and polymorphonuclear cells infiltration in dermis is marked 0.5, 1.0, 1.5 according to light, middle, and heavy degrees, respectively; obvious mastoid extrusion scores 0.5 point; telangiectasis in superficial layer of dermis scores 0.5 point."}, "[2]": {"parameters": "species or system guinea pigs", "details": "guinea pig, in vivo", "procedure": "0.9% sodium chloride solution was administrated to blank group and model group; Positive drug control group was given suspension of acitretin A capsule at 2.25 mg/kg, and the amount of intragastric administration is all 1 mL/100 g for each time, twice a day; 20 mg/kg chlorogenic acid was administrated to the low-dose group by intramuscular injection, and 40 mg/kg chlorogenic acid was administrated to the high-dose group by intramuscular injection, using a volume of 0.2 ml/10 g, once a day.\nBefore guinea pigs were sacrificed, blood was drawn via peritoneal cavity, and urea nitrogen and creatinine were detected by enzymic method, while glutamate pyruvate transaminase and glutamic-oxalacetic transaminase were tested using rate method."}, "[3]": {"test_system": "polymorphonuclear leukocytes (PMN)", "test": "PMN transport into zymosan A-soaked gelatin sponge in peritoneal cavity of mice (psoriasis pustulosa test)", "assay_type": "in vivo, Kunmin mice", "procedure": "Kunmin mice were randomly divided into 3 groups. Blank control group: according to body weight, about 0.5 ml of peanut oil was administrated to mice by gavage everyday; for high-dose group of chlorogenic acid (20 mg·kg^−1), chlorogenic acid was administrated to each mouse at a dose of 0.4 ml/20 g by peritoneal injection; for low-dose group of chlorogenic acid (10 mg·kg^−1), chlorogenic acid was administrated to each mouse at a dose of 0.4 ml/20 g by peritoneal injection. Following phasic points were observed, i.e. before administration (day 0), days 1, 2, 4, 6 after administration.\nAfter a piece of sterile gelatin sponge (1 cm^2) was immersed in 0.75% zymosan A for 30 min, it was placed in peritoneal cavity of mice by surgery, and mice received standard diet. 24 hours after surgery, 5 mice of same phasic point were decapitated, and the gelatin sponges were taken out and stored in 0.5 ml cell eluant for culturing 30 min at 37 ° C., respectively. The gelatin sponges were washed with 0.01 mol/LPBS0.5 ml thrice, respectively, and the eluant was collected, passed through 40 μm nylon screen cloth, centrifuged, and the volume was 0.5 ml. Cells in above eluants were counted by automatic blood cell counter, and the amount of polymorphonuclear leukocytes (PMN) was read."}}, "note": "Read-outs that look alike come from different tables or passages of the source."}
{"smiles": "O=C(/C=C/c1ccc(O)c(O)c1)O[C@@H]1C[C@](O)(C(=O)O)C[C@@H](O)[C@H]1O", "note": "[chlorogenic acid]", "values": [{"measurement": "Pathology of lesional tissue after administration (light microscope)", "setting": "[1]; chlorogenic group 20 and 40 mg/kg i.m.", "value": "obvious improvement"}, {"measurement": "Baker scores compared with model group", "setting": "[1]; guinea pigs, 20 and 40 mg/kg intramuscular injection once a day", "value": "significantly different"}, {"measurement": "Baker score of low-dose group (20 mg/kg) relative to high-dose group (40 mg/kg)", "setting": "[1]; guinea pigs, intramuscular injection once a day, not dose-dependent", "value": "superior"}, {"measurement": "ALT", "setting": "[2]; 20 mg/kg", "value": "33.40 ± 7.26", "unit": "u/L"}, {"measurement": "AST", "setting": "[2]; 20 mg/kg", "value": "29.10 ± 7.29", "unit": "u/L"}, {"measurement": "Serum creatinine", "setting": "[2]; 20 mg/kg", "value": "88.33 ± 7.80", "unit": "µmol/L"}, {"measurement": "Urea nitrogen", "setting": "[2]; 20 mg/kg", "value": "4.92 ± 0.63", "unit": "mmol"}, {"measurement": "ALT", "setting": "[2]; 40 mg/kg", "value": "32.30 ± 6.07", "unit": "u/L"}, {"measurement": "AST", "setting": "[2]; 40 mg/kg", "value": "24.80 ± 2.57", "unit": "u/L"}, {"measurement": "Serum creatinine", "setting": "[2]; 40 mg/kg", "value": "87.27 ± 4.67", "unit": "µmol/L"}, {"measurement": "Urea nitrogen", "setting": "[2]; 40 mg/kg", "value": "4.98 ± 0.71", "unit": "mmol"}, {"measurement": "Chemotactic activity of PMN in mice", "setting": "[3]; 10 and 20 mg/kg peritoneal injection", "value": "significantly reduce"}, {"measurement": "PMN transport numbers", "setting": "[3]; high dose group 20 mg/kg peritoneal injection, Day 0 (before administration)", "value": "7.60 ± 6.07 ×10^9/L"}, {"measurement": "PMN transport numbers", "setting": "[3]; high dose group 20 mg/kg peritoneal injection, Day 1", "value": "1.54 ± 0.26 ×10^9/L"}, {"measurement": "PMN transport numbers", "setting": "[3]; high dose group 20 mg/kg peritoneal injection, Day 2", "value": "1.20 ± 2.14 ×10^9/L"}, {"measurement": "PMN transport numbers", "setting": "[3]; high dose group 20 mg/kg peritoneal injection, Day 4", "value": "1.15 ± 0.89 ×10^9/L"}, {"measurement": "PMN transport numbers", "setting": "[3]; high dose group 20 mg/kg peritoneal injection, Day 6", "value": "1.10 ± 1.29 ×10^9/L"}, {"measurement": "PMN transport numbers", "setting": "[3]; low dose group 10 mg/kg peritoneal injection, Day 0 (before administration)", "value": "6.98 ± 1.71 ×10^9/L"}, {"measurement": "PMN transport numbers", "setting": "[3]; low dose group 10 mg/kg peritoneal injection, Day 1", "value": "4.92 ± 2.63 ×10^9/L"}, {"measurement": "PMN transport numbers", "setting": "[3]; low dose group 10 mg/kg peritoneal injection, Day 2", "value": "2.67 ± 1.33 ×10^9/L"}, {"measurement": "PMN transport numbers", "setting": "[3]; low dose group 10 mg/kg peritoneal injection, Day 4", "value": "1.98 ± 0.90 ×10^9/L"}, {"measurement": "PMN transport numbers", "setting": "[3]; low dose group 10 mg/kg peritoneal injection, Day 6", "value": "1.62 ± 0.58 ×10^9/L"}, {"measurement": "Inhibitory action on chemotactic activity of PMN, high dose group (20 mg/kg) compared with low dose group (10 mg/kg)", "setting": "[3]; peritoneal injection", "value": "stronger inhibitory action"}]}
{"smiles": "COc1cc(C)c(/C=C/C(C)=C/C=C/C(C)=C/C(=O)O)c(C)c1C", "note": "[Acitretin A capsule, Acitretin A, reference compound]", "values": [{"measurement": "Pathology of lesional tissue after administration (light microscope)", "setting": "[1]; positive group 2.25 mg/kg intragastric twice a day", "value": "obvious improvement"}, {"measurement": "Baker scores compared with model group", "setting": "[1]; guinea pigs, positive group 2.25 mg/kg intragastric twice a day", "value": "significantly different"}]}
